# Experimental data taken from ChEMBL document CHEMBL3414430 (J Med Chem, 2015).
# The source made the active and inactive calls. The rule behind the calls is not given here.
# How the values were obtained:
# [1] = biological target: T1, Histone deacetylase 8 (Homo sapiens, UniProt Q9BY41)
# T1 sequence (Q9BY41 whole entry): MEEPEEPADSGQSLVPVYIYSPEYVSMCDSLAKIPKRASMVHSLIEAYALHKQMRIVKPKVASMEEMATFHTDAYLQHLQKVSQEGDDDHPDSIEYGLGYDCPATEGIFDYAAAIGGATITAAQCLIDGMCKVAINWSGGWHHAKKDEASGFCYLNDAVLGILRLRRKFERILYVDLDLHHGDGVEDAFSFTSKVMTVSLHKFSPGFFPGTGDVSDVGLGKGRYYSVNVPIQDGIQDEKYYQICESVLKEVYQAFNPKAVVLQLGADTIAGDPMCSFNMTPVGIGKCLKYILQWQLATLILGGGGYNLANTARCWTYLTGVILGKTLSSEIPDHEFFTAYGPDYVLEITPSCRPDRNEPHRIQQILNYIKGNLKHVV
# Description: Inhibition of HDAC8 (unknown origin) using RHK(Ac)K(Ac)AMC as substrate
# [2] = test system: Mus musculus; assay: AUC (0 to infinity) in ICR mouse at 100 mg/kg, po; type: ADME, organism-based, Plasma; set-up: time infinity, dose 100 mg/kg, route oral; conditions: in vivo
# [3] = biological target: T2, Protein deacetylase HDAC6 (Homo sapiens, UniProt Q9UBN7)
# T2 sequence (Q9UBN7 whole entry): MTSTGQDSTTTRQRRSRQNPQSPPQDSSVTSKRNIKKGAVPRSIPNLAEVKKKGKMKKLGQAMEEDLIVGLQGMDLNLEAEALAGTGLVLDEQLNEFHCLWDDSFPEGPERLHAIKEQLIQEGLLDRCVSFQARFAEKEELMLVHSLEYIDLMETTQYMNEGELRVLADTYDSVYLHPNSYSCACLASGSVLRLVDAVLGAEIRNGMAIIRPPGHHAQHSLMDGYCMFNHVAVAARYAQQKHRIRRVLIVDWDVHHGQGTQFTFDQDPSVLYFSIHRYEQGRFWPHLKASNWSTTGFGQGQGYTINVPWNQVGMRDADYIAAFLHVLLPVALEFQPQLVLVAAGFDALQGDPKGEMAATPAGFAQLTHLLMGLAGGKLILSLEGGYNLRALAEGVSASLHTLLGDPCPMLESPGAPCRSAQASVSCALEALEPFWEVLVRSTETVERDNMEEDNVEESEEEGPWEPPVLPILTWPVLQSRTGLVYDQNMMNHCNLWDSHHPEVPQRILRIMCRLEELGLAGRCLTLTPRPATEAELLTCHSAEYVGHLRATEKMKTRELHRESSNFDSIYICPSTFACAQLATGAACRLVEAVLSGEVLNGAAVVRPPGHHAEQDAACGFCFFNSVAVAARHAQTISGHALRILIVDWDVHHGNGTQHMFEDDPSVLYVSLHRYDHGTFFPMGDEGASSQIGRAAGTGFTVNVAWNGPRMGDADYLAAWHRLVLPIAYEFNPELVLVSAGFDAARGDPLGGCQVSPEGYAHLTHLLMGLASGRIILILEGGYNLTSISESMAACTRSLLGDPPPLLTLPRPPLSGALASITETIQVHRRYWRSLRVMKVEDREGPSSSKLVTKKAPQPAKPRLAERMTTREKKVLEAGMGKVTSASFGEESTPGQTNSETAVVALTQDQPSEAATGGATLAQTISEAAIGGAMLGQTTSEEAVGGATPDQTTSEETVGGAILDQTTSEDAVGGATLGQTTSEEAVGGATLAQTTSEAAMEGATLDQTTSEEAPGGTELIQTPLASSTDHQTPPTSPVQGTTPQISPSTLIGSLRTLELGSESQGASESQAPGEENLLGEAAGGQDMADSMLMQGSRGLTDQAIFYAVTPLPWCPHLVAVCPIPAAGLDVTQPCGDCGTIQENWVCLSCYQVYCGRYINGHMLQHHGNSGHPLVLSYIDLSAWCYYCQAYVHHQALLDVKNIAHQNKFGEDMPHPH
# Description: Inhibition of HDAC6 (unknown origin) using RHKK(Ac)AMC as substrate
# [4] = Half life in ICR mouse at 10 mg/kg, iv; type: ADME, organism-based; set-up: dose 10 mg/kg, route intravenous; conditions: in vivo
# [5] = Plasma clearance in ICR mouse; type: ADME, organism-based
# [6] = Intrinsic clearance in human liver microsomes at 1 uM preincubated for 10 mins followed by NADPH addition measured over 30 mins by LC-MS/MS analysis; type: ADME; conditions: read-out: CLH
# [7] = biological target: T3, Histone deacetylase 1/2/3/6 (Homo sapiens) (UniProt Q13547+O15379+Q9UBN7+Q92769); assay: Inhibition of HDAC1/HDAC2/HDAC3 in human HeLa cells assessed as induction of p21 gene expression at 3 to 10 uM after 15 hrs by luciferase reporter gene assay; type: cell-based
# [8] = biological target: Histone deacetylase 1 (Homo sapiens, UniProt Q13547)
# Description: Inhibition of HDAC1 (unknown origin) using RHKK(Ac)AMC as substrate
# [9] = Intrinsic clearance in mouse liver microsomes at 1 uM preincubated for 10 mins followed by NADPH addition measured over 30 mins by LC-MS/MS analysis; type: ADME; conditions: read-out: CLH
# [10] = test system: Mus musculus; assay: AUC (0 to infinity) in ICR mouse at 10 mg/kg, iv; type: ADME, organism-based, Plasma; set-up: time infinity, dose 10 mg/kg, route intravenous; conditions: in vivo
# [11] = Oral bioavailability in ICR mouse at 100 mg/kg; type: ADME, organism-based; conditions: in vivo
# [12] = Cmax in ICR mouse at 100 mg/kg, po; type: ADME, organism-based; set-up: dose 100 mg/kg, route oral; conditions: in vivo
# [13] = Solubility of the compound in PBS measured after overnight incubation by LYSA assay; type: physicochemical
# [14] = test system: Mus musculus; assay: AUC (0 to infinity) in ICR mouse at 50 mg/kg, po; type: ADME, organism-based, Plasma; set-up: time infinity, dose 50 mg/kg, route oral; conditions: in vivo
# [15] = Oral bioavailability in ICR mouse at 50 mg/kg; type: ADME, organism-based; conditions: in vivo
# [16] = Cmax in ICR mouse at 50 mg/kg, po; type: ADME, organism-based; set-up: dose 50 mg/kg, route oral; conditions: in vivo
# [17] = test system: Mus musculus; assay: AUC (0 to infinity) in ICR mouse at 25 mg/kg, iv; type: ADME, organism-based, Plasma; set-up: time infinity, dose 25 mg/kg, route intravenous; conditions: in vivo
# [18] = Half life in ICR mouse at 25 mg/kg, iv; type: ADME, organism-based; set-up: dose 25 mg/kg, route intravenous; conditions: in vivo
# [19] = biological target: T3, Histone deacetylase 1/2/3/6 (Homo sapiens); conditions: HeLa, at 10 µM
# Description: Inhibition of HDAC1/HDAC2/HDAC3 in human HeLa cells assessed as induction of p21 gene expression at 10 uM after 15 hrs by luciferase reporter gene assay relative to HDAC1 inhibitor SNDX-275
# [20] = biological target: T4, Cytochrome P450 1A2 (Homo sapiens, UniProt P05177); assay: Inhibition of CYP1A2 in human liver microsomes preincubated for 10 mins followed by NADPH addition measured after 30 mins by LC-MS/MS analysis; type: ADME
# T4 sequence (P05177 whole entry): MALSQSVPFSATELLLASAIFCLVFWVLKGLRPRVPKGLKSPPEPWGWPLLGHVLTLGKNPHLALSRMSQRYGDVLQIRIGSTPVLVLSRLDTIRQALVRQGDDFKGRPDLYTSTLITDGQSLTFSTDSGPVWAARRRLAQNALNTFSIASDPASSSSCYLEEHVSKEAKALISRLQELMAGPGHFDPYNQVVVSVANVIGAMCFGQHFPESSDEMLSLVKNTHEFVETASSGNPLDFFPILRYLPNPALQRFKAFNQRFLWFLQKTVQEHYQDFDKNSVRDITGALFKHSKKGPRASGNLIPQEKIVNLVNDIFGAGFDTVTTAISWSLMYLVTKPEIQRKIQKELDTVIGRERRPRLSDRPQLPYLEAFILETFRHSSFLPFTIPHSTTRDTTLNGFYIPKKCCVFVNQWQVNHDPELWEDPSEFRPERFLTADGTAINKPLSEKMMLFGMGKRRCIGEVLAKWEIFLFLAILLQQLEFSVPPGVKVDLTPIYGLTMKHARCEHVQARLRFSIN
# [21] = biological target: Cytochrome P450 2D6 (Homo sapiens, UniProt P10635); assay: Inhibition of CYP2D6 in human liver microsomes preincubated for 10 mins followed by NADPH addition measured after 30 mins by LC-MS/MS analysis; type: ADME
# [22] = biological target: Cytochrome P450 2C19 (Homo sapiens, UniProt P33261); assay: Inhibition of CYP2C19 in human liver microsomes preincubated for 10 mins followed by NADPH addition measured after 30 mins by LC-MS/MS analysis; type: ADME
# [23] = biological target: T2, Protein deacetylase HDAC6; remark: listed apart in the source
# Description: Inhibition of HDAC6 in human A549 cells assessed as induction of tubulin acetylation after 17 to 18 hrs by ELISA
# [24] = biological target: Cytochrome P450 3A4 (Homo sapiens, UniProt P08684); assay: Inhibition of CYP3A4 in human liver microsomes preincubated for 10 mins followed by NADPH addition measured after 30 mins by LC-MS/MS analysis; type: ADME
# [25] = biological target: Cytochrome P450 2C9 (Homo sapiens, UniProt P11712); assay: Inhibition of CYP2C9 in human liver microsomes preincubated for 10 mins followed by NADPH addition measured after 30 mins by LC-MS/MS analysis; type: ADME
# Cytochrome P450 2C9, sequence (P11712 whole entry): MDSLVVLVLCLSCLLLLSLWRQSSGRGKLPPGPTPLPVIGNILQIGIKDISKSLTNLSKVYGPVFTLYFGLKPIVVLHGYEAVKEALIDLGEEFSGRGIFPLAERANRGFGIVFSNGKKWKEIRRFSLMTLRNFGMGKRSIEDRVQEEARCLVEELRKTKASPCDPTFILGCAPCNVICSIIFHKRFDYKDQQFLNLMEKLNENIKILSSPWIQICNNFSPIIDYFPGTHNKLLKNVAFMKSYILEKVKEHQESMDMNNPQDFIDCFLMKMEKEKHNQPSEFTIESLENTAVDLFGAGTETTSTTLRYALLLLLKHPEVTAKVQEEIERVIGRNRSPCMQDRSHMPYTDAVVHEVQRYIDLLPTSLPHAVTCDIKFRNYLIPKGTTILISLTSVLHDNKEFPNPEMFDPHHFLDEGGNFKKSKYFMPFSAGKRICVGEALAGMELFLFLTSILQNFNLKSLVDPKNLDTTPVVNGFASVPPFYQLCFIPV
# Histone deacetylase 1, sequence (Q13547 whole entry): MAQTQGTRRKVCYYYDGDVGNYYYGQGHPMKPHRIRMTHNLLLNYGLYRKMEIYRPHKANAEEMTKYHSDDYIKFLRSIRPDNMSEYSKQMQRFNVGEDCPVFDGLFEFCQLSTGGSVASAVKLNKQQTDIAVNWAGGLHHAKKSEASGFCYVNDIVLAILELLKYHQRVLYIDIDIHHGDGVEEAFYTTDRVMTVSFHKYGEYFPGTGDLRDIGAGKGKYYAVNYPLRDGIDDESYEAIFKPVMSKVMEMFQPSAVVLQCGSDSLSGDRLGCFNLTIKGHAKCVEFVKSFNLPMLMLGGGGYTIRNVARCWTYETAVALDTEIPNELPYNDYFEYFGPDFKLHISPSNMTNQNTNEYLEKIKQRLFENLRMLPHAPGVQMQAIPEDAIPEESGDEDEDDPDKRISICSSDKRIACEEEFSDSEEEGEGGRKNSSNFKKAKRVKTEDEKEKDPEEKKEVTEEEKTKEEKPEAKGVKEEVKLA
# T3 sequence (O15379 whole entry, looked up, one chain of several): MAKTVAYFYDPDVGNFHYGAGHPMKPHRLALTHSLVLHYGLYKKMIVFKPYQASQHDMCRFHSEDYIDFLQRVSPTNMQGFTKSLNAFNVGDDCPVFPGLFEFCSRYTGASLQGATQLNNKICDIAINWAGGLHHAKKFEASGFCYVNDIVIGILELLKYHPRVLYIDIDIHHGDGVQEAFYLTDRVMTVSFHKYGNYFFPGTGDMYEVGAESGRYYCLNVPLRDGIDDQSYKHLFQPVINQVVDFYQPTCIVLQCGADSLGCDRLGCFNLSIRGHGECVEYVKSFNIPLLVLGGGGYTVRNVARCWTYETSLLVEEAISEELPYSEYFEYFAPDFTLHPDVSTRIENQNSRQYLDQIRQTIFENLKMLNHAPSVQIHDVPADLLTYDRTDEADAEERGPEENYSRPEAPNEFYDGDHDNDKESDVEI
# T3 sequence (Q13547 whole entry, looked up, one chain of several): as the sequence (Q13547 whole entry) above
# T3 sequence (Q92769 whole entry, looked up, one chain of several): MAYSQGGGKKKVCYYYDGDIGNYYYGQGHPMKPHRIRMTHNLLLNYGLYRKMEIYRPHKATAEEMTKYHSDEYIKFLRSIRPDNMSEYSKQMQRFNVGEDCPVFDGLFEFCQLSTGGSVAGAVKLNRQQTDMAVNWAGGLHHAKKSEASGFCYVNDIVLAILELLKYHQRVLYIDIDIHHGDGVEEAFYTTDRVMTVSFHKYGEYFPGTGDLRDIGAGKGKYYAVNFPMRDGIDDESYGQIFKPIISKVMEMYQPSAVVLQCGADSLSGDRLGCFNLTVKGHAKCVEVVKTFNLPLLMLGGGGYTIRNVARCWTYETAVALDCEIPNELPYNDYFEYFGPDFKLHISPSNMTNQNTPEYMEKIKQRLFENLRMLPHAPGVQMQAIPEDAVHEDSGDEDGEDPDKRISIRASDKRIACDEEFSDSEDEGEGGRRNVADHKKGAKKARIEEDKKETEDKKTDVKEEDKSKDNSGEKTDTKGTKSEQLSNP
# Cytochrome P450 3A4, sequence (P08684 whole entry): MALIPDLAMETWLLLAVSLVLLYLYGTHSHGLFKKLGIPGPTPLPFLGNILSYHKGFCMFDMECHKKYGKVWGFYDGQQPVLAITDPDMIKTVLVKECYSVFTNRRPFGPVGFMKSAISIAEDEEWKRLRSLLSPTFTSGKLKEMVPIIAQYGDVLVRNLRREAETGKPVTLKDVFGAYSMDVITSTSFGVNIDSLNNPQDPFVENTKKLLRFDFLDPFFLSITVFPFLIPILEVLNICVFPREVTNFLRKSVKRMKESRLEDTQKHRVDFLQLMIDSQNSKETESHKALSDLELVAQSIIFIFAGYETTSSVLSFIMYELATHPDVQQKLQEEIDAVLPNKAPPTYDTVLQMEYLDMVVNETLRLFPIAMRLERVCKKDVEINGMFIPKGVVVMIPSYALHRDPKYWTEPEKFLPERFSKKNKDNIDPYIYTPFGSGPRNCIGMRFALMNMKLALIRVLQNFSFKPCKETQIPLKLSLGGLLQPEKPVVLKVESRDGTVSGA
# Cytochrome P450 2C19, sequence (P33261 whole entry): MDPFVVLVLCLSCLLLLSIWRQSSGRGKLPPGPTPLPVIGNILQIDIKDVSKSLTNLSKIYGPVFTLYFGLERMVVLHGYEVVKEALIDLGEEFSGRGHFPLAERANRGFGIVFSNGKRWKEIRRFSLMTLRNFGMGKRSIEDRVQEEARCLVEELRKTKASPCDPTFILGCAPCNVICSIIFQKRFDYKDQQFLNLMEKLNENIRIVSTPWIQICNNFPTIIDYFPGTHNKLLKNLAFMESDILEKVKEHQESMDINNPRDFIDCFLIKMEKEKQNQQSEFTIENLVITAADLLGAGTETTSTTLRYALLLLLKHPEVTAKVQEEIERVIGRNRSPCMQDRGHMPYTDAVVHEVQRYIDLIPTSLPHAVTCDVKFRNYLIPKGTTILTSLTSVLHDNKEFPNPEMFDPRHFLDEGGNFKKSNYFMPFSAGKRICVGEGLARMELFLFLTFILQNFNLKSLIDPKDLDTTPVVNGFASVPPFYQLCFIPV
# Cytochrome P450 2D6, sequence (P10635 whole entry): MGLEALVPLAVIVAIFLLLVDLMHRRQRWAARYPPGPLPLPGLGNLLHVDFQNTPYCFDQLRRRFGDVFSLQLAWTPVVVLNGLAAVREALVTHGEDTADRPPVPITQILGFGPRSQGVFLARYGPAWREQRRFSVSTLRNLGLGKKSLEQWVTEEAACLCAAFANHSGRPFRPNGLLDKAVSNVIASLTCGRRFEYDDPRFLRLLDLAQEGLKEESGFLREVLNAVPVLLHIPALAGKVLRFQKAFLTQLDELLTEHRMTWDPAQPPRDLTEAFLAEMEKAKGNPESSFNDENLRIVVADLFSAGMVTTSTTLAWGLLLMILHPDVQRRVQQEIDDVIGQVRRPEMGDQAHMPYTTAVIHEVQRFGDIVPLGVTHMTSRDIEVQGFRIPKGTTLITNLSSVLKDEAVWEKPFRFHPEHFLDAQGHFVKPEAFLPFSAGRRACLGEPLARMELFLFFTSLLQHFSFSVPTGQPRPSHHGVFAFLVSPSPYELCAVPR
Structure (SMILES),IC50 [1] [nM],AUC [2] [µg/L/h],IC50 [3] [nM],half-life [4] [min],clearance [5] [mL/min/kg],CLint scaled at 1 µM [6] [mL/min/kg],IC50 [8] [nM],CLint scaled at 1 µM [9] [mL/min/kg],AUC [10] [µg/L/h],bioavailability [11] [%],Cmax [12] [ng/mL],solubility [13] [µg/mL],AUC [14] [µg/L/h],bioavailability [15] [%],further results
O=C(NO)c1ccc(NC2CCN(c3ccc(Cl)cc3)C2=O)cc1 (configuration not stated),120,278,160,66,156,8,14300,44,1065,3,57,< 1,–,–,inhibition [7]: inactive
O=C(NO)c1ccc(NC2CCN(c3ccccc3)C2=O)cc1 (configuration not stated),210,–,380,–,108,4.6,19500,26,–,–,–,33,125,≤ 1,Cmax [16]: 34 ng/mL; AUC [17]: 3850 µg/L/h; half-life [18]: 42 min; inhibition [19]: inactive
O=C(CCCCCCC(=O)Nc1ccccc1)NO [VORINOSTAT],–,–,–,24,112,0.1,–,33,1486,–,–,> 385,619,8,–
C[C@]1(Nc2ccc(C(=O)NO)cc2)CCN(c2ccc(Cl)cc2)C1=O,180,10500,17,126,87,3,74100,38,1900,55,626,22,–,–,IC50 [20]: > 50000 nM; IC50 [21]: > 50000 nM; IC50 [22]: > 50000 nM; EC50 [23]: 300 nM; IC50 [24]: > 50000 nM; IC50 [25]: > 50000 nM
